In patent US20070185183A1, “Indolinesulphanilic acid amides as ppar-delta modulators” (Bayer HealthCare AG, priority 2003, published 2007):

Biological target: T1, human PPARδ receptor (Homo sapiens, UniProt Q03181)
T1 construct: expressed in transfected cells
T1 sequence (Q03181 211-439 limits assumed): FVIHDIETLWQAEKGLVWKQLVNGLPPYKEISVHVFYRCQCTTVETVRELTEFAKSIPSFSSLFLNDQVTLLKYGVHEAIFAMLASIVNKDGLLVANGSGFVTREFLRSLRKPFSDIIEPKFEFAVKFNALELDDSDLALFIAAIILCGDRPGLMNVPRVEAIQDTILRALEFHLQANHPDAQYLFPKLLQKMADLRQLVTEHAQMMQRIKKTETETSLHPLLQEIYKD
Test: Cellular transactivation assay (GAL4-PPARδ chimera, luciferase reporter)
Format: cell-based
Settings: GAL4-PPARδ chimera stably expressed in CHO cells, 24 hours stimulation
Source text: A cellular assay is used to identify activators of the peroxisome proliferator-activated receptor delta (PPAR-delta).
Since mammalian cells contain different endogenous nuclear receptors which may complicate an unambiguous interpretation of the results, an established chimera system is used in which the ligand binding domain of the human PPARδ receptor is fused to the DNA binding domain of the yeast transcription factor GAL4. The resulting GAL4-PPARδ chimera is co-transfected and stably expressed in CHO cells having a reporter construct.
The GAL4-PPARδ expression construct contains the ligand binding domain of PPARδ (amino acids […]), which is PCR-amplified and cloned into the vector pcDNA3.1. This vector already contains the GAL4 DNA binding domain (amino acids 1-147) of the vector pFC2-dbd (Stratagene). […]
CHO (chinese hamster ovary) cells are sown in CHO-A-SFM medium (GIBCO), supplemented by 2.5% foetal calf serum and 1% penicillin/streptomycin (GIBCO), at a cell density of 2×10^3 cells per well in a 384-well plate (Greiner). […] After a stimulation period of 24 hours, the luciferase activity is measured using a video camera. The relative light units measured give, as a function of the substance concentration, a sigmoidal stimulation curve. The EC50 values are calculated using the computer program GraphPad PRISM (Version 3.02).

EC50: 8.5 nM
Structure (SMILES): CN(CC(=O)O)c1ccc(S(=O)(=O)N2CC(C)(C)c3cc(-c4ccc(C(F)(F)F)cc4)ccc32)cc1 [Working Example 1, N-[4-({3,3-Dimethyl-5-[4-(trifluoromethyl)phenyl]-2,3-dihydro-1H-indol-1-yl}sulphonyl)phenyl]-N-methylglycine]
